Experimental data: publication PMC4696656, “Insights into the Mechanism of Action of Bactericidal Lipophosphonoxins” (PLoS ONE, 2015)
Values after ≈ are worked out from the molar mass of the structure shown. Values joined by “and” are separate entries in the source; they are usually repeats but may differ in a detail not shown here. Equal entries are not always repeated. Where two headings read alike, the source gives them in different places.

Columns and labels:
[1] = Carboxyfluorescein leakage assay, LUV from erythrocyte lipids; assay type: biochemical, human; conditions: LPPO 0.8 mg/L, 60 μM phospholipid, 25°C
Experimental: After evaporation of the solvent in vaccuo at 40°C, the phospholipids were dissolved in chloroform, filtered through glass fiber filters (Whatman) and concentrated under a stream of nitrogen. The lipid samples were stored at -80°C and used for liposome preparation. Vesicles to be used in the carboxyfluorescein (CF) leakage assay were prepared by mixing the appropriate amount of lipids (1 mg/ml) with chloroform/methanol 2:1 (v/v). The solvent was subsequently evaporated under a nitrogen gas stream obtaining a thin film on the walls of a glass tube. […] The release of vesicle contents after adding LPPO solutions was evaluated by the increased fluorescence intensity of CF released into the milieu which we express as the percentage of leakage. […] Maximum release of CF fluorescence (F max) was induced by lysing the vesicles with 0.1% (v/v) Triton X-100. Fluorescence intensity was monitored in time (excitation at 480 nm, emission at 515 nm) at 25°C using FluoroMax-3 (Jobin Yvon, Horriba) spectrofluorometer. The following equation was used to calculate the percent of CF leakage: % CF leakage = [(F–F 0)/(F max−F 0)] × 100, where F is the actual fluorescence intensity and F 0 is the fluorescence intensity before addition of the permeabilizing agent. […]

[2] = Conductance measurements in planar lipid membranes (BLM); assay type: biochemical; conditions: 5 mg/L, 1M KCl, 10 mM Tris, pH 7.4, 45 mV
Experimental: A Teflon chamber was divided into two compartments connected by a circular aperture of about 0.5 mm in diameter. Black lipid bilayer membranes were formed by painting a solution of 3% (w/v) asolectin (type IIS phosphatidylcholine; Sigma-Aldrich) in n-decane/butanol (9:1, v/v) across the hole. Both compartments contained 2 ml of 10 mM Tris, 1M KCl, pH 7.4. The temperature was kept at 25°C. Tested LPPO was added to the cis side of the membrane at a concentration of 5 mg/L. The membrane current was measured with Ag/AgCl electrodes (Theta) with salt bridges (applied voltage 45 mV, cis positive), amplified by LCA-200-100G or LCA-4k-1G amplifier (Femto) and digitized by KPCI-3108 card (Keithly). The signal was processed by QuB software. The histograms of single pore conductance was calculated from at least 500 events using a 50 pS bin size and fitted with Gaussian functions using Fityk software.

Solubility in water = assay type: physicochemical
[3] = Critical micellar concentration (conductometry); assay type: physicochemical; conditions: 37°C
Experimental: Critical micellar concentration (CMC) values were measured (using conductometry method, COND 7, XS Laboratories instrument) and calculated according to literature procedure. LogD values were calculated using software package ACD Labs.

[4] = tested on: Enterococcus faecalis CCM 4224; experiment: Induction of resistance by repeated passages, MIC after each step; assay type: cell-based
Streptococcus agalactiae = experiment: MIC, standard microdilution method; conditions: 24 h
S. aureus MRSA 4591 = experiment: MIC, standard microdilution method; conditions: Staphylococcus aureus, 24 h
[5] = tested on: Staphylococcus haemolyticus 16568; experiment: MIC, standard microdilution method; conditions: Staphylococcus haemolyticus, 16568, 24 h
[6] = tested on: Enterococcus faecium VanA 419/ana; experiment: MIC, standard microdilution method; conditions: VANA419/ANA, 24 h
[7] = tested on: Staphylococcus epidermidis 8700/B; experiment: MIC, standard microdilution method; conditions: 24 h
[8] = CCM4224, read-out: MIC after induction step, step 1
[9] = CCM4224, read-out: MIC after induction step, step 2
[10] = CCM4224, read-out: MIC after induction step, step 3
[11] = CCM4224, read-out: MIC after induction step, step 4
[12] = CCM4224, read-out: MIC after induction step, step 5
[13] = CCM4224, read-out: MIC after induction step, step 6
[14] = CCM4224, read-out: MIC after induction step, step 7
[15] = CCM4224, read-out: MIC after induction step, step 8
[16] = CCM4224, read-out: MIC after induction step, step 9
[17] = CCM4224, read-out: MIC after induction step, step 10
[18] = CCM4224, read-out: MIC after induction step, step 11
[19] = CCM4224, read-out: MIC after induction step, step 12
[20] = CCM4224, read-out: MIC after induction step, step 13
[21] = CCM4224, read-out: MIC after induction step, step 14

Row | Structure (SMILES) | CF release, % of the maximum (Triton X-100) [1] [%] | most frequent single pore conductance step [2] [pS] | solubility (Solubility in water) [mg/mL] | CMC in H2O [3] | MIC [4, 8] [mg/L] | MIC [4, 9] [mg/L] | MIC [4, 10] [mg/L] | MIC [4, 11] [mg/L] | MIC [4, 12] [mg/L] | MIC [4, 13] [mg/L] | MIC [4, 14] [mg/L] | MIC [4, 15] [mg/L] | MIC [4, 16] [mg/L] | MIC [4, 17] [mg/L] | MIC [4, 18] [mg/L] | MIC [4, 19] [mg/L] | MIC [4, 20] [mg/L] | MIC [4, 21] [mg/L] | MIC (Streptococcus agalactiae) [mg/L] | MIC (S. aureus MRSA 4591) [mg/L] | further results
1 | CCCCCCCCCCCCCCCCOP(=O)(CCN1C[C@@H](O)[C@H](O)C1)OC[C@H]1O[C@@H](n2ccc(=O)[nH]c2=O)[C@H](O)[C@@H]1O (some centres unmarked) [DR5026] | 8 | 310 ± 128 | > 10 | 4 mM and 3 g/L | 6.2 (≈ 9.37 µM) | 6.2 (≈ 9.37 µM) | 6.2 (≈ 9.37 µM) | 6.2 (≈ 9.37 µM) | 6.2 (≈ 9.37 µM) | 12.5 (≈ 18.9 µM) | 12.5 (≈ 18.9 µM) | 12.5 (≈ 18.9 µM) | 12.5 (≈ 18.9 µM) | 12.5 (≈ 18.9 µM) | 12.5 (≈ 18.9 µM) | 12.5 (≈ 18.9 µM) | 12.5 (≈ 18.9 µM) | 12.5 (≈ 18.9 µM) | 3.12 (≈ 4.72 µM) | 25 to 50 (≈ 37.8 to 75.6 µM) | MIC [5]: 50 mg/L (≈ 75.6 µM); MIC [6]: 3.12 mg/L (≈ 4.72 µM); MIC [7]: 3.12 mg/L (≈ 4.72 µM)
2 | CCCCCCCCCCCCCCCCOCCCOP(=O)(CCN1C[C@@H](O)[C@H](O)C1)OC[C@H]1O[C@@H](n2ccc(=O)[nH]c2=O)[C@H](O)[C@@H]1O (some centres unmarked) [DR5047] | 4 | 70 ± 37 | > 10 | 3 mM and 2 g/L | 12.5 (≈ 17.4 µM) | 12.5 (≈ 17.4 µM) | 12.5 (≈ 17.4 µM) | 12.5 (≈ 17.4 µM) | 25 (≈ 34.7 µM) | 25 (≈ 34.7 µM) | 25 (≈ 34.7 µM) | 25 (≈ 34.7 µM) | 25 (≈ 34.7 µM) | 50 (≈ 69.5 µM) | 25 (≈ 34.7 µM) | 25 (≈ 34.7 µM) | 25 (≈ 34.7 µM) | 25 (≈ 34.7 µM) | 6.25 (≈ 8.68 µM) | > 200 | further conductance states observed [2]: 270 ± 79 pS and 510 ± 77 pS; MIC [5]: > 200 mg/L; MIC [6]: 6.25 mg/L (≈ 8.68 µM); MIC [7]: 3.12 mg/L (≈ 4.34 µM)
